# Data taken from patent EP4417602A1, “SUBSTITUTED PYRAZOLE CARBOXAMIDES, SALTS THEREOF AND THEIR USE AS HERBICIDALLY ACTIVE SUBSTANCES” (Bayer AG, priority 2023, dated 2024).
# How the values were obtained:
# ECHCG = assay: A. Herbicidal pre-emergence action on harmful plants (Tables A); type: in vivo, Echinochloa crus-galli; conditions: visual grading after ca. 3 weeks vs untreated controls, 100% = plants have died off, 0% = as control plants
# Text: (§1) Seeds of mono- and dicotyledonous weed plants were sown in plastic pots (double sowings with one species of mono- and one species of dicotyledonous weed plants per pot), in sandy loam, and covered with soil. The compounds according to the invention, formulated in the form of wettable powders (WP) or as emulsifiable concentrates (EC), were applied to the surface of the covering soil as aqueous suspension or emulsion, with the addition of 0.5% of an additive, at an application rate of 6001 of water per hectare (converted). Following treatment, the pots were placed in a greenhouse and kept under optimum growth conditions for the test plants. The visual grading of the damage to the test plants was carried out after ca. 3 weeks in comparison to untreated controls (herbicidal effect in percent (%): 100% effect = plants have died off, 0% effect = as control plants). Tables A1 to A12, below, show the effects of selected compounds of the general formula (I) according to table 1 on various harmful plants and an application rate corresponding to 1280 g/ha or below obtained by the experimental procedure mentioned above. Table A1: pre-emergence activity at 1280g/ha against ABUTH in %
# LOLRI = assay: as above; type: in vivo, Lolium rigidum; conditions: visual grading after ca. 3 weeks vs untreated controls, 100% = plants have died off, 0% = as control plants
# Text: as §1
# POAAN [1] = assay: as above; type: in vivo, Poa annua
# Text: as §1
# DIGSA = assay: as above; type: in vivo, Digitaria sanguinalis
# Text: as §1
# MATIN = assay: as above; type: in vivo, Matricaria inodora; conditions: visual grading after ca. 3 weeks vs untreated controls, 100% = plants have died off, 0% = as control plants
# Text: as §1
# SETVI = assay: as above; type: in vivo, Setaria viridis; conditions: visual grading after ca. 3 weeks vs untreated controls, 100% = plants have died off, 0% = as control plants
# Text: as §1
# POAAN [2] = assay: B. Herbicidal post-emergence action on harmful plants (Tables B); type: in vivo, Poa annua
# Protocol: Seeds of mono- and dicotyledonous weed plants were placed in plastic pots in sandy loam soil (doubly sown with in each case one species of mono- or dicotyledonous weed plants per pot), covered with soil and cultivated in a greenhouse under controlled growth conditions. 2 to 3 weeks after sowing, the test plants were treated at the one-leaf stage. The compounds of the invention, formulated in the form of wettable powders (WP) or as emulsion concentrates (EC), were applied onto the green parts of the plants as aqueous suspension or emulsion with addition of 0.5% additive at a water application rate of 600 liters per hectare (converted). After the test plants had been kept in the greenhouse under optimum growth conditions for about 3 weeks, the activity of the preparations was rated visually in comparison to untreated controls. For example, 100% activity = the plants have died, 0% activity = like control plants. Tables B1 to B12, below, show the effects of selected compounds of the general formula (I) according to table 1 on various harmful plants and an application rate corresponding to 1280 g/ha or below obtained by the experimental procedure mentioned above. Table B1a: post-emergence activity at 1280g/ha against ABUTH in %
# STEME = assay: A. Herbicidal pre-emergence action on harmful plants (Tables A); type: in vivo, Stellaria media; conditions: application rate 1280 g/ha; visual grading after ca. 3 weeks vs untreated controls; 100% = plants have died off, 0% = as control plants
# Text: as §1
# [3] = application rate 1280 g/ha, visual grading after ca. 3 weeks vs untreated controls, 100% = plants have died off, 0% = as control plants
# [4] = application rate 1280 g/ha, Table A12a
# [5] = application rate 80 g/ha, Table A7c
# [6] = application rate 320 g/ha, Table A7b
# [7] = application rate 320 g/ha, Table A12b
# [8] = application rate 1280 g/ha, Table B7a
smiles,measurement,setting,value
COCc1nn(CC(OC)OC)cc1C(=O)N1CCCC1Cc1ccccc1F (racemic) [Example I-047],pre-emergence activity against ECHCG,ECHCG; application rate 1280 g/ha,100%
same,pre-emergence activity against LOLRI,LOLRI; application rate 1280 g/ha,90%
same,pre-emergence activity against POAAN,POAAN [1]; [3],100%
same,pre-emergence activity against DIGSA,DIGSA; [4],90%
COCCOCCn1cc(C(=O)N2CCCC2Cc2ccccc2F)c(COC)n1 (racemic) [Example I-030],pre-emergence activity against ECHCG,ECHCG; application rate 1280 g/ha,90%
same,pre-emergence activity against MATIN,MATIN; application rate 1280 g/ha,90%
same,pre-emergence activity against SETVI,SETVI; application rate 1280 g/ha,90%
same,pre-emergence activity against POAAN,POAAN [1]; [5],90%
same,pre-emergence activity against POAAN,POAAN [1]; [6],90%
same,pre-emergence activity against POAAN,POAAN [1]; [3],100%
same,pre-emergence activity against DIGSA,DIGSA; [4],90%
"COCc1c(C(=O)N2CCCC2Cc2ccc(F)cc2F)cnn1C (single isomer, unassigned) [Example I-119]",pre-emergence activity against ECHCG,ECHCG; application rate 1280 g/ha,90%
same,pre-emergence activity against LOLRI,LOLRI; application rate 1280 g/ha,100%
same,pre-emergence activity against SETVI,SETVI; application rate 320 g/ha,90%
same,pre-emergence activity against SETVI,SETVI; application rate 1280 g/ha,100%
same,pre-emergence activity against POAAN,POAAN [1]; [3],100%
same,pre-emergence activity against DIGSA,DIGSA; [7],90%
same,pre-emergence activity against DIGSA,DIGSA; [4],100%
same,post-emergence activity against POAAN,POAAN [2]; [8],90%
COCc1c(C(=O)N2CCCC2Cc2c(F)cccc2Cl)cnn1C (racemic) [Example I-151],pre-emergence activity against ECHCG,ECHCG; application rate 1280 g/ha,100%
same,pre-emergence activity against LOLRI,LOLRI; application rate 1280 g/ha,90%
same,pre-emergence activity against SETVI,SETVI; application rate 1280 g/ha,90%
same,pre-emergence activity against STEME,STEME,90%
same,pre-emergence activity against POAAN,POAAN [1]; [3],100%
same,pre-emergence activity against DIGSA,DIGSA; [4],100%
COCc1nn(CC#N)cc1C(=O)N1CCCC1Cc1ccccc1F (racemic) [Example I-029],pre-emergence activity against ECHCG,ECHCG; application rate 1280 g/ha,90%
same,pre-emergence activity against MATIN,MATIN; application rate 1280 g/ha,90%
same,pre-emergence activity against SETVI,SETVI; application rate 1280 g/ha,100%
same,pre-emergence activity against POAAN,POAAN [1]; [3],90%
same,pre-emergence activity against DIGSA,DIGSA; [4],100%
COCc1nn(CC2OCCO2)cc1C(=O)N1CCCC1Cc1ccccc1F (racemic) [Example I-028],pre-emergence activity against ECHCG,ECHCG; application rate 1280 g/ha,90%
same,pre-emergence activity against SETVI,SETVI; application rate 1280 g/ha,90%
same,pre-emergence activity against POAAN,POAAN [1]; [3],100%
same,pre-emergence activity against DIGSA,DIGSA; [4],90%
COCCn1cc(C(=O)N2CCCC2Cc2ccccc2F)c(COC)n1 (racemic) [Example I-032],pre-emergence activity against ECHCG,ECHCG; application rate 320 g/ha,90%
same,pre-emergence activity against ECHCG,ECHCG; application rate 1280 g/ha,90%
same,pre-emergence activity against LOLRI,LOLRI; application rate 1280 g/ha,100%
same,pre-emergence activity against SETVI,SETVI; application rate 320 g/ha,90%
same,pre-emergence activity against SETVI,SETVI; application rate 1280 g/ha,90%
same,pre-emergence activity against POAAN,POAAN [1]; [6],100%
same,pre-emergence activity against POAAN,POAAN [1]; [3],100%
same,pre-emergence activity against DIGSA,DIGSA; [4],100%
COCc1nn(CC2CC2)cc1C(=O)N1CCCC1Cc1ccccc1F (racemic) [Example I-026],pre-emergence activity against ECHCG,ECHCG; application rate 1280 g/ha,90%
same,pre-emergence activity against SETVI,SETVI; application rate 1280 g/ha,90%
same,pre-emergence activity against POAAN,POAAN [1]; [3],100%
same,pre-emergence activity against DIGSA,DIGSA; [4],100%
"COCc1c(C(=O)N2CCCC2Cc2c(F)cccc2Cl)cnn1C (single isomer, unassigned) [Example I-190]",pre-emergence activity against ECHCG,ECHCG; application rate 320 g/ha,90%
same,pre-emergence activity against ECHCG,ECHCG; application rate 1280 g/ha,100%
same,pre-emergence activity against LOLRI,LOLRI; application rate 1280 g/ha,90%
same,pre-emergence activity against SETVI,SETVI; application rate 1280 g/ha,100%
same,pre-emergence activity against STEME,STEME,90%
same,pre-emergence activity against POAAN,POAAN [1]; [5],90%
same,pre-emergence activity against POAAN,POAAN [1]; [6],100%
same,pre-emergence activity against POAAN,POAAN [1]; [3],100%
same,pre-emergence activity against DIGSA,DIGSA; [7],100%
same,pre-emergence activity against DIGSA,DIGSA; [4],100%
same,post-emergence activity against POAAN,POAAN [2]; [8],90%
Cn1cc(C(=O)N2CCC2Cc2ccccc2F)c(COCC(F)F)n1 (racemic) [Example I-108],pre-emergence activity against ECHCG,ECHCG; application rate 320 g/ha,100%
same,pre-emergence activity against ECHCG,ECHCG; application rate 1280 g/ha,100%
same,pre-emergence activity against LOLRI,LOLRI; application rate 1280 g/ha,90%
same,pre-emergence activity against MATIN,MATIN; application rate 1280 g/ha,100%
same,pre-emergence activity against SETVI,SETVI; application rate 1280 g/ha,100%
same,pre-emergence activity against STEME,STEME,90%
same,pre-emergence activity against POAAN,POAAN [1]; [5],90%
same,pre-emergence activity against POAAN,POAAN [1]; [6],100%
same,pre-emergence activity against POAAN,POAAN [1]; [3],100%
same,pre-emergence activity against DIGSA,DIGSA; [4],100%
same,post-emergence activity against POAAN,POAAN [2]; [8],90%
COC(=O)c1nn(C)cc1C(=O)N1CCCC1Cc1ccc(F)cc1F (racemic) [Example I-096],pre-emergence activity against ECHCG,ECHCG; application rate 320 g/ha,100%
same,pre-emergence activity against ECHCG,ECHCG; application rate 1280 g/ha,100%
same,pre-emergence activity against STEME,STEME,100%
same,pre-emergence activity against POAAN,POAAN [1]; [6],100%
same,pre-emergence activity against POAAN,POAAN [1]; [3],100%
same,pre-emergence activity against DIGSA,DIGSA; [4],100%
same,post-emergence activity against POAAN,"POAAN [2]; application rate 320 g/ha, Table B7b",100%
same,post-emergence activity against POAAN,POAAN [2]; [8],100%
Cn1cc(C(=O)N2CCCC2Cc2ccccc2F)c(C2CCCO2)n1 (stereo not shown) [Example I-011],pre-emergence activity against ECHCG,ECHCG; application rate 1280 g/ha,100%
same,pre-emergence activity against LOLRI,LOLRI; application rate 1280 g/ha,90%
same,pre-emergence activity against STEME,STEME,90%
same,pre-emergence activity against POAAN,POAAN [1]; [3],100%
same,pre-emergence activity against DIGSA,DIGSA; [4],100%
Cn1cc(C(=O)N2CCC2Cc2ccccc2Cl)c(COCC(F)F)n1 (racemic) [Example I-109],pre-emergence activity against ECHCG,ECHCG; application rate 320 g/ha,100%
same,pre-emergence activity against ECHCG,ECHCG; application rate 1280 g/ha,100%
same,pre-emergence activity against MATIN,MATIN; application rate 1280 g/ha,100%
same,pre-emergence activity against SETVI,SETVI; application rate 1280 g/ha,90%
same,pre-emergence activity against POAAN,POAAN [1]; [6],100%
same,pre-emergence activity against POAAN,POAAN [1]; [3],100%
same,pre-emergence activity against DIGSA,DIGSA; [7],90%
same,pre-emergence activity against DIGSA,DIGSA; [4],100%
"COCc1c(C(=O)N2CCCC2Cc2cccc(F)c2F)cnn1C (single isomer, unassigned) [Example I-137]",pre-emergence activity against ECHCG,ECHCG; application rate 80 g/ha,90%
same,pre-emergence activity against ECHCG,ECHCG; application rate 320 g/ha,90%
same,pre-emergence activity against ECHCG,ECHCG; application rate 1280 g/ha,100%
same,pre-emergence activity against LOLRI,LOLRI; application rate 320 g/ha,90%
same,pre-emergence activity against LOLRI,LOLRI; application rate 1280 g/ha,100%
same,pre-emergence activity against MATIN,MATIN; application rate 320 g/ha,90%
same,pre-emergence activity against MATIN,MATIN; application rate 1280 g/ha,90%
same,pre-emergence activity against SETVI,SETVI; application rate 1280 g/ha,100%
same,pre-emergence activity against POAAN,POAAN [1]; [5],100%
same,pre-emergence activity against POAAN,POAAN [1]; [6],100%
same,pre-emergence activity against POAAN,POAAN [1]; [3],100%
same,pre-emergence activity against DIGSA,"DIGSA; application rate 80 g/ha, Table A12c",100%
same,pre-emergence activity against DIGSA,DIGSA; [7],100%
same,pre-emergence activity against DIGSA,DIGSA; [4],100%
same,post-emergence activity against POAAN,POAAN [2]; [8],90%
COCc1nn(C(C)C)cc1C(=O)N1CCCC1Cc1ccccc1F (racemic) [Example I-025],pre-emergence activity against ECHCG,ECHCG; application rate 1280 g/ha,90%
same,pre-emergence activity against LOLRI,LOLRI; application rate 1280 g/ha,90%
same,pre-emergence activity against MATIN,MATIN; application rate 1280 g/ha,90%
same,pre-emergence activity against SETVI,SETVI; application rate 1280 g/ha,90%
same,pre-emergence activity against POAAN,POAAN [1]; [6],100%
same,pre-emergence activity against POAAN,POAAN [1]; [3],100%
same,pre-emergence activity against DIGSA,DIGSA; [7],90%
same,pre-emergence activity against DIGSA,DIGSA; [4],100%
